Experimental data from patent publication US20260327216A1, “SUBSTITUTED OXAZOLONE COMPOUND FOR DECREASING LEVELS OF IKZF I-4 PROTEINS” (BRISTOL-MYERS SQUIBB COMPANY, priority 2023, published 2026).

Columns and labels:
Format in all cases: cell-based
IKZF2 Helios = IKZF2 Helios (Homo sapiens, UniProt Q96SW2+Q9UKS7); assay: Human Regulatory T Cell Reprogramming Assay, IKZF2; design: endogenous in cells; host or cells: FACS-sorted human CD4+CD127lowCD25+ Treg cells from healthy leukopaks; conditions: 12-13 days; for Dmax: Regulatory T cell, human, read-out: IKZF2 Helios max % deg. observed; for Dmax / IKZF2 Helios max % deg. observed: human CD4+CD127lowCD25+ Treg cells, stimulated, 100% = complete degradation
Experimental: Human CD4^+ T cells were isolated from fresh healthy leukopaks (Stemcell Technologies) using the RosetteSep Human CD4^+ T cell enrichment cocktail (Stemcell Technologies) and Ficoll density gradient centrifugation. Leukopaks were diluted with an equal volume of phosphate-buffered saline (PBS [Gibco]) supplemented with 2% fetal bovine serum (FBS, VWR Lifescience) and incubated with RosetteSep Human CD4^+ T cell enrichment cocktail for 20 minutes before layering on Ficoll-Paque Plus solution (GE Health Care). The cell-rich interface layer was harvested and washed twice with PBS supplemented with 2% FBS. Regulatory T cells were then isolated manually using the EasySep Human CD4^+CD127^lowCD25^+ Regulatory T cell isolation kit (Stemcell Technologies) according to the manufacturer's instructions. Cells were rested overnight in Roswell Park Memorial Institute (RPMI) 1640 media (Gibco) supplemented with 10% FBS, Pen/Strep (Gibco), MEM-NEAA (Gibco), and sodium pyruvate (Gibco) in a humidified incubator (37° C., 5% CO2). Cells were then stained for CD4 (clone: RPA-T4, Biolegend), CD25 (clone: 2A3, BD Biosciences), and CD127 (clone: hIL-7R-M21, BD Biosciences). CD4^+CD127^lowCD25^+ cells were sorted on a BD FACS Aria Fusion sorter to a purity of 95% or greater. Sorted cells were immediately used or cryopreserved for downstream assays.
Fresh or cryopreserved FACS-sorted CD4^+CD127^lowCD25^+ Treg cells were cultured at 25,000-50,000 cells/well of 96-well round bottom plates in RPMI 1640 media (Gibco) supplemented with 10% FBS, Pen/Strep (Gibco), MEM-NEAA (Gibco), and sodium pyruvate (Gibco). Cells were stimulated with Treg Xpander beads (Thermo Fisher) at cells-to-beads ratio of 1:4 in the presence of 500 U/mL recombinant human IL-2 (Proleukin). Compounds were added at titrated doses and cells were incubated at 37°C., 5% CO2 for 12-13 days. Recombinant human IL-2 and compound were replenished every 2-3 days during the entire culture duration. On day 12 or 13, cells were restimulated with phorbol 12-myristate 13-acetate (PMA) and ionomycin in the presence of the protein transport inhibitors brefeldin A and monensin (eBioscience Cell Stimulation Cocktail plus protein transport inhibitors, 500×, Catalog number 00-4975-93) before proceeding with flow cytometry staining and analysis.
For flow cytometry staining, cells were washed twice with flow cytometry staining buffer (Thermo Fisher) and incubated in Human Tru-stain Fc block (Biolegend) for 10 minutes before adding eFluor780 viability dye (Thermo Fisher) and surface marker antibody cocktail for 30 minutes at 4° C. Cells were then fixed and permeabilized by incubation with FoxP3 transcription factor staining buffer (Thermo Fisher) for 30 minutes at 4° C. as per the kit manufacturer's instructions. Cells were washed twice with the Perm/Wash buffer supplied in the kit as per the manufacturer's instructions and incubated overnight at 4° C. with an intracellular antibody cocktail comprised of antibodies specific for the transcription factors shown in Table C. Cells were washed twice with Perm/Wash buffer and resuspended in flow cytometry staining buffer (Thermo Fisher) prior to acquisition. Sample acquisition and analysis was performed using a BD LSRFortessa (BD Biosciences) flow cytometer. Single stain controls for each fluorochrome were prepared using UltraComp eBead Compensation Beads (Thermo Fisher). Data were analyzed using FlowJo version 10 and GraphPad Prism Software.
(§1) Table C-1 lists the maximum observed degradation of the IKZF2 protein and IKZF4 protein as measured in the Human Regulatory T Cell Reprogramming assay. The results in Table C-1 were rounded to two digits. In the Human Regulatory T Cell Reprogramming assay, a value of 100% indicated no detectable protein remaining or complete degradation of the protein; and a value of 0% indicated no detectable degradation of the protein by the test compound.

IKZF3 Aiolos = IKZF3 Aiolos (Homo sapiens, UniProt Q96SW2+Q9UKT9); assay: Human CD8^+ T Cell Reprogramming Assay, IKZF3; design: Cryopreserved healthy donor human peripheral blood mononuclear cells (PBMC); endogenous in cells; host or cells: human PBMC from healthy donors (CD8+ T cells by flow cytometry); conditions: human PBMC, CD8+ T cells, 24 hours; for Dmax / IKZF3 Aiolos Maximum Observed Degradation: 100% = complete degradation; for Dmax: read-out: IKZF3 Aiolos Maximum Observed Degradation
Experimental: (§2) Cryopreserved healthy donor human peripheral blood mononuclear cells (PBMC) from healthy donors were thawed and seeded at 500,000 cells/well of 96-well round bottom plates in RPMI 1640 media (Gibco) supplemented with 10% FBS, Pen/Strep (Gibco), MEM-NEAA (Gibco), and sodium pyruvate (Gibco). Cells were treated with titrated doses of compound for 24 hours at 37° C., 5% CO2 before analyzing by flow cytometry.
(§3) For flow cytometry staining, cells were washed twice with flow cytometry staining buffer (Thermo Fisher) and incubated in Human Tru-stain Fc block (Biolegend) for 10 minutes before adding eFluor780 viability dye (Thermo Fisher) and surface marker antibody cocktail containing LD-eFluor780, CD3-BUV-395, CD4-BUV805, CD8-FITC, and CD25-BV605 for 30 minutes at 4° C. Cells were then fixed and permeabilized by incubation with permeabilization buffer (eBioscience FoxP3 buffer set 00-5523-00) for 30 minutes at 4° C. as per the kit manufacturer's instructions. Cells were washed twice with the Perm/Wash buffer supplied in the kit as per the manufacturer's instructions and incubated overnight at 4° C. with an intracellular antibody cocktail comprised of antibodies specific for the transcription factors (i.e., Foxp3-BV421, HELIOS-PE-Cy7, EOS-PE, IKAROS-PECF594, AIOLOS-AF647). Cells were washed twice with Perm/Wash buffer and resuspended in flow cytometry staining buffer (Thermo Fisher) prior to acquisition. Sample acquisition and analysis was performed using a BD LSRFortessa (BD Biosciences) flow cytometer. Single-stain controls for each fluorochrome were prepared using UltraComp eBead Compensation Beads (Thermo Fisher). Data were analyzed using FlowJo version 10 and GraphPad Prism Software.
as §1, with “D-1” for “C-1”, “IKZF1” for “IKZF2”, “IKZF3” for “IKZF4”, “CD8^+” for “Regulatory”

IKZF1 Ikaros = IKZF1 Ikaros (Homo sapiens, UniProt Q13422+Q96SW2); assay: Human CD8^+ T Cell Reprogramming Assay, IKZF1; design: Cryopreserved healthy donor human peripheral blood mononuclear cells (PBMC); endogenous in cells; host or cells: human PBMC from healthy donors (CD8+ T cells by flow cytometry); conditions: human PBMC, CD8+ T cells; for Dmax: human, 24 h, read-out: IKZF1 Ikaros Maximum Observed Degradation
Experimental: as §2, §3
as §1, with “D-1” for “C-1”, “IKZF1” for “IKZF2”, “IKZF3” for “IKZF4”, “CD8^+” for “Regulatory”

Sequence of IKZF3 Aiolos (Q9UKT9 whole entry): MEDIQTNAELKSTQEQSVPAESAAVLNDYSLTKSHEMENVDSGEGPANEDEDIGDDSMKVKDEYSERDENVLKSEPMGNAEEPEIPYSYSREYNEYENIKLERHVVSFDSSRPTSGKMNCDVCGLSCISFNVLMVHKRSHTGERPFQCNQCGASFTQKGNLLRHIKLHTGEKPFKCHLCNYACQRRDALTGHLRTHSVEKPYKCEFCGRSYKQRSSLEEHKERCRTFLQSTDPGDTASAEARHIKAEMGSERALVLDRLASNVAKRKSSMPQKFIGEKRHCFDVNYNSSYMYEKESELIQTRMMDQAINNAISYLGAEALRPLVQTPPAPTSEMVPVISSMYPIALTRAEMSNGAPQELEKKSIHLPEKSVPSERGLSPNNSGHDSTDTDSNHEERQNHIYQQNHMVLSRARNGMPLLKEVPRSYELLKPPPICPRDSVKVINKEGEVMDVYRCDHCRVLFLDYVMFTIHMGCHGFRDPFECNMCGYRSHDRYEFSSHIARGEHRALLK
Sequence of IKZF3 Aiolos (Q96SW2 whole entry): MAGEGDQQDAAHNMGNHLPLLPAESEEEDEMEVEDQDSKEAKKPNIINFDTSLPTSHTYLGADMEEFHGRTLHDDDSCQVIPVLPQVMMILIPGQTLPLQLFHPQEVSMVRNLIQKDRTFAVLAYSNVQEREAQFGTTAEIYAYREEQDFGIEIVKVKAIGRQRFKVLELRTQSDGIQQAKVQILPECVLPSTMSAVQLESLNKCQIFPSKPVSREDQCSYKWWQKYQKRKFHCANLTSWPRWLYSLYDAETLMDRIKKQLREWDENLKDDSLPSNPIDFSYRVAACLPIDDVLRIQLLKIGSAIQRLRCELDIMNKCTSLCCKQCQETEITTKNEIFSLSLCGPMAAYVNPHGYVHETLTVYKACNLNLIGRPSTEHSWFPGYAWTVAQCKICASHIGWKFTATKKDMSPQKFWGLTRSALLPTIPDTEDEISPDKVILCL
Sequence of IKZF3 Aiolos (Q16531 whole entry partner): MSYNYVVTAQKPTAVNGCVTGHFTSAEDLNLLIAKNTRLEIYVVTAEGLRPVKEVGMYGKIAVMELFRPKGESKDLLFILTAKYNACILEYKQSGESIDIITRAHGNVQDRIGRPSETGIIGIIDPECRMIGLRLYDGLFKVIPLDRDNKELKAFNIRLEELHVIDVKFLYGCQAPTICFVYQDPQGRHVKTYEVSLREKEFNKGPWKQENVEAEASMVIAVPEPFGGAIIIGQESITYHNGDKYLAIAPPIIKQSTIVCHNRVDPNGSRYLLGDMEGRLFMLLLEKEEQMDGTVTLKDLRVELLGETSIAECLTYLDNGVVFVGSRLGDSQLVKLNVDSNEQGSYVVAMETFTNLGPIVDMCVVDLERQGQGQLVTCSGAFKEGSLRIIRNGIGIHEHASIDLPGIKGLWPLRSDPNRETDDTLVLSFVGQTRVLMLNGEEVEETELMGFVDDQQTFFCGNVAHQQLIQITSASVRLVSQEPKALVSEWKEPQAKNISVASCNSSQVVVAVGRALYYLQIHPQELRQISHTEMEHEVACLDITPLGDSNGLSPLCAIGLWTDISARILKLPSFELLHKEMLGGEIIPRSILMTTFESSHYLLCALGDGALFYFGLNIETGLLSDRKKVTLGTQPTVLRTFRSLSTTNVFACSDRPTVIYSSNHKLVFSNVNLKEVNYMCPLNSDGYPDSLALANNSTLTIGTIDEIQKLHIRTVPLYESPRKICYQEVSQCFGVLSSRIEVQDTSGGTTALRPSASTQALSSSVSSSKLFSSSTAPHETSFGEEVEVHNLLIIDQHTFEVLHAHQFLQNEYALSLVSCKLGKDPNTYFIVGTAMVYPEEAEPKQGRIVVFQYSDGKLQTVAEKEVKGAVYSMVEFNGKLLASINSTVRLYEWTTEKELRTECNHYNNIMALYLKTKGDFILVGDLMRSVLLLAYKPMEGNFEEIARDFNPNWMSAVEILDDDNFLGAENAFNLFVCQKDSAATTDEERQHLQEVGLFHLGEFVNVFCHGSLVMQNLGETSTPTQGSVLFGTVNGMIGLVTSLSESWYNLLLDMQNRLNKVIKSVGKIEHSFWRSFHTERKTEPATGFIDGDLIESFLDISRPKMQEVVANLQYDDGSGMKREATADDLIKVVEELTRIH
Sequence of IKZF1 Ikaros (Q13422 whole entry): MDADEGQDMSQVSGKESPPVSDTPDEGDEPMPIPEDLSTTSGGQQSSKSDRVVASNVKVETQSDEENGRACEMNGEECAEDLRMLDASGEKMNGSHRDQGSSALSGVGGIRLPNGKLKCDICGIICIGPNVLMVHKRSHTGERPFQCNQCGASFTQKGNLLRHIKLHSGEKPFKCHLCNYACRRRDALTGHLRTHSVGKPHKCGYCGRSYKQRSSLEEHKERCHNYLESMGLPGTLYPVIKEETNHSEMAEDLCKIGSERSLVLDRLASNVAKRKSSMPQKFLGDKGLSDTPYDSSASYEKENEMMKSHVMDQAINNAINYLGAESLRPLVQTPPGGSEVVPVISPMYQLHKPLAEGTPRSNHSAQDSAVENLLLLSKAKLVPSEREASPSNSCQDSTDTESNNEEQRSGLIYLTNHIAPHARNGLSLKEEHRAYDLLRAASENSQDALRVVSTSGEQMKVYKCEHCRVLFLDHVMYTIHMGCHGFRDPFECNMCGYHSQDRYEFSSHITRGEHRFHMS
Sequence of IKZF1 Ikaros (Q96SW2 whole entry): as the sequence (Q96SW2 whole entry) above
Sequence of IKZF1 Ikaros (Q16531 whole entry partner): as the sequence (Q16531 whole entry partner) above
Sequence of IKZF2 Helios (Q9UKS7 whole entry): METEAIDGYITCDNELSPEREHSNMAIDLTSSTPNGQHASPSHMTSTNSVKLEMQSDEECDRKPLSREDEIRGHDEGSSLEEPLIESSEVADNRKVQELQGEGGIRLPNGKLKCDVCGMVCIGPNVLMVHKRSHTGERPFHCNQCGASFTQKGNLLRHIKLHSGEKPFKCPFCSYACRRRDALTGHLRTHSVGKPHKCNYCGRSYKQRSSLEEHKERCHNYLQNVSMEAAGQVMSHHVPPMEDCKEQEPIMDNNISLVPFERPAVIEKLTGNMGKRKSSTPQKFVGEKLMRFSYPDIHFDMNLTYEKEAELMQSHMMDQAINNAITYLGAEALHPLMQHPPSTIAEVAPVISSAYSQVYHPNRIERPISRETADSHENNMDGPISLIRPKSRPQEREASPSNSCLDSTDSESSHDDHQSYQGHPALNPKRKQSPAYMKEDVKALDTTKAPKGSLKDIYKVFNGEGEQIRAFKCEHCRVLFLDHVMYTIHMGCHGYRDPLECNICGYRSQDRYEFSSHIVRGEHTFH
Sequence of IKZF2 Helios (Q96SW2 whole entry): as the sequence (Q96SW2 whole entry) above
Sequence of IKZF2 Helios (Q16531 whole entry partner): as the sequence (Q16531 whole entry partner) above

SMILES	Dmax (IKZF2 Helios)	IKZF2 Helios max % deg. observed (IKZF2 Helios)	Dmax (IKZF3 Aiolos)	Dmax (IKZF1 Ikaros; 100% = complete degradation)	IKZF3 Aiolos Maximum Observed Degradation (IKZF3 Aiolos)	DC50 (IKZF2 Helios; human Treg cells, concentration reducing protein level by 50% vs DMSO)	IKZF3 Aiolos Maximum Observed Degradation (IKZF3 Aiolos; 1440 min)	DC50 (IKZF3 Aiolos; concentration reducing protein level by 50% vs DMSO)	IKZF1 Ikaros Maximum Observed Degradation (IKZF1 Ikaros; 24 hours, 100% = complete degradation, 1440 min)	DC50 (IKZF1 Ikaros; 24 hours, concentration reducing protein level by 50% vs DMSO)
O=C1CCC(n2cc(-c3ccc(Br)cc3F)oc2=O)C(=O)N1 (centres unmarked) [Comparative Compound B, 3-(5-(4-bromo-2-fluorophenyl)-2-oxooxazol-3(2H)-yl)piperidine-2,6-dione]	≤ 6%	6%	0%	17%	–	–	–	–	–	–
O=C1CCC(n2cc(-c3ccccc3)oc2=O)C(=O)N1 (centres unmarked) [Comparative Compound A, 3-(2-oxo-5-phenyloxazol-3(2H)-yl)piperidine-2,6-dione]	–	1%	80%	74%	80%	–	–	–	–	–
Cc1cc(-c2ccc(-c3cn(C4CCC(=O)NC4=O)c(=O)o3)c(F)c2)nc(N)c1OC(F)F (centres unmarked) [Example 1, 3-(5-(4-(6-Amino-5-(difluoromethoxy)-4-methylpyridin-2-yl)-2-fluorophenyl)-2-oxooxazol-3(2H)-yl)piperidine-2,6-dione]	86 to 92%	86-92%	69 to 74%	68 to 69%	–	0.0011 to 0.0014 µM	69-74%	0.022 to 0.025 µM	69%	0.064 to 0.094 µM
